# Reference: patent US20240239811A1, “5-(5-(PIPERIDIN-4-YL)THIENO[3,2-C]PYRAZOL-2-YL]INDAZOLE DERIVATIVES AND RELATED COMPOUNDS AS MODULATORS FOR SPLICING NUCLEIC ACIDS AND FOR THE T” (REMIX THERAPEUTICS INC., priority 2020, published 2024)
# Structures can show the parent of a compound that is named as a salt.
# Legend:
# Type in all cases: cell-based
# HTT CJ mRNA = experiment: Gene panel canonical junction qPCR assay, HTT; conditions: Table 6, decrease in CJ mRNA, read-out: HTT IC50 (decrease in CJ mRNA levels)
# Protocol: (§1) Compounds described herein were used to modulate RNA transcript abundance in cells. The expression of a target mRNA was measured by detecting the formation of an exon-exon junction in the canonical transcript (CJ). A compound mediated exon-inclusion event was detected by observing an increase in formation of a new junction with an alternative exon (AJ). Real-time qPCR assays were used to detect these splicing switches and interrogate the potency of various compounds towards different target genes. A high-throughput real time quantitative PCR (RT-qPCR) assay was developed to measure these two isoforms of the mRNA (CJ and AJ) for an exemplary gene, HTT, together with a control housekeeping gene, GAPDH or GUSB or PPIA, used for normalization. Briefly, the A673 or K562 cell line was treated with various compounds described herein (e.g., compounds of Formula (I)). After treatment, the levels of the HTT mRNA targets were determined from each sample of cell lysate by cDNA synthesis followed by qPCR.
# (§2) The A673 cell line was cultured in DMEM with 10% FBS. Cells were diluted with full growth media and plated in a 96-well plate (15,000 cells in 100ul media per well). The plate was incubated at 37° C. with 5% CO2 for 24 hours to allow cells to adhere. An 11-point 3-fold serial dilution of the compounds was made in DMSO then diluted in media in an intermediate plate. Compounds were transferred from the intermediate plate to the cell plate with the top dose at a final concentration of 10 uM in the well. Final DMSO concentration was kept at or below 0.25%. The cell plate was returned to the incubator at 37° C. with 5% CO2 for an additional 24 hours.
# (§3) The K562 cell line was cultured in IMDM with 10% FBS. For K562, cells were diluted with full growth media and plated in either a 96-well plate (50,000 cells in 50 uL media per well) or a 384-well plate (8,000-40,000 cells in 45 uL media per well). An 11-point 3-fold serial dilution of the compounds were made in DMSO then diluted in media in an intermediate plate. Compound was transferred from the intermediate plate to the cell plate with the top dose at a final concentration of 10 uM in the well. Final DMSO concentration was kept at or below 0.25%. Final volume was 100 uL for 96-well plate and 50 uL for 384-well plate. The cell plate was then placed in an incubator at 37° C. with 5% CO2 for 24 hours.
# (§4) The data analysis was performed by first determining the ΔCt vs the housekeeper gene. This ΔCt was then normalized against the DMSO control (ΔΔCt) and converted to RQ (relative quantification) using the 2^(−ΔΔCt) equation. The RQ were then converted to a percentage response by arbitrarily setting an assay window of 3.5 ΔCt for HTT-CJ and an assay window of 9 ΔCt for HTT-AJ. […] The percentage response was then fitted to the 4 parametric logistic equation to evaluate the concentration dependence of compound treatment. The increase in AJ mRNA is reported as AC50 (compound concentration having 50% response in AJ increase) while the decrease in CJ mRNA levels is reported as IC50 (compound concentration having 50% response in CJ decrease).
# (§5) Additional studies were carried out for a larger panel of genes using the protocol provided above. The junction between flanking upstream and downstream exons was used to design canonical junction qPCR assays. At least one of the forward primer, reverse primer or the CY5-labeled 5′ nuclease probe (with 3′ quencher such as ZEN/Iowa Black FQ) was designed to overlap with the exon junction to capture the CJ mRNA transcript. BLAST was used to confirm the specificity of the probeset and parameters such as melting temperature, GC content, amplicon size, and primer dimer formation are considered during their design. Data for the decrease in CJ mRNA levels for three exemplary genes (HTT, SMN2, and Target C) analyzed in this panel are reported as IC50 (compound concentration having […] in CJ decrease).
# SMN2 CJ mRNA = experiment: Gene panel canonical junction qPCR assay, SMN2; conditions: Table 6, decrease in CJ mRNA, read-out: SMN2 IC50 (decrease in CJ mRNA levels)
# Protocol: as §1, §2, §3, §4, §5
# HTT mRNA = experiment: Splicing assay (RT-qPCR) monitoring HTT splice variants, canonical (CJ) and alternative (AJ) junction; conditions: 50% response, A673 or K562 cell line, 24 hours; for IC50: decrease in CJ mRNA; for AC50: increase in AJ mRNA
# Protocol: as §1
# • Cells-to-CT 1-step kit: ThermoFisher A25602, Cells-to-CT lysis reagent: ThermoFisher 4391851C, TaqMan™ Fast Virus 1-Step Master Mix: ThermoFisher 4444436 • GAPDH: VIC-PL, ThermoFisher 4326317E (Assay: Hs99999905_ml)—used for K562/suspension cell lines • GUSB: VIC-PL, ThermoFisher 4326320E (Assay: Hs99999908_ml)—used for K562/suspension cell lines • PPIA: VIC-PL, ThermoFisher 4326316E (Assay: Hs99999904_ml)—used for A673/adherent cell lines
# as §2, §3
# The cells were then gently washed with 50 uL-100 uL cold PBS before proceeding to addition of lysis buffer. 30 uL-50 uL of room temperature lysis buffer with DNAse I (and optionally RNAsin) was added to each well. Cells were shaken/mixed thoroughly at room temperature for 5-10 minutes for lysis to take place and then 3 uL-5 uL of room temperature stop solution was added and wells were shaken/mixed again. After 2-5 minutes, the cell lysate plate was transferred to ice for RT-qPCR reaction setup. The lysates could also be frozen at −80° C. for later use.
# In some cases, a direct lysis buffer was used. An appropriate volume of 3X lysis buffer (10 mM Tris, 150 mM NaCl, 1.5%-2.5% Igepal and 0.1-1 U/uL RNAsin, pH 7.4) was directly added to either K562 or A673 cells in media and mixed by pipetting 3 times. The plates were then incubated at room temperature with shaking/rocking for 20-50 minutes to allow for lysis to take place. After this time, the cell lysate plate was transferred to ice to set up for the RT-qPCR reactions. The lysates could also be frozen at −80° C. for later use. […]
# Target C CJ mRNA = experiment: Gene panel canonical junction qPCR assay, Target C; conditions: Table 6, decrease in CJ mRNA, read-out: Target C IC50 (decrease in CJ mRNA levels)
# Protocol: as §1, §2, §3, §4, §5
IC50 (HTT CJ mRNA) [µM],IC50 (SMN2 CJ mRNA) [µM],IC50 (HTT mRNA) [µM],IC50 (Target C CJ mRNA) [µM],Compound,AC50 (HTT mRNA) [µM]
0.1 to 1,< 0.1,0.1 to 1,1 to 10,Cn1cc2cc(-c3nc4sc(N5CCNCC5)c(Cl)c4s3)cc(F)c2n1 [Compound 147],0.1 to 1
< 0.1,< 0.1,< 0.1,0.1 to 1,"CCN1CCC(n2cc3cc(-c4cc(F)c5nn(C)cc5c4)sc3n2)CC1 [Compound 149, 5-[2-(1-ethylpiperidin-4-yl)thieno[2,3-c]pyrazol-5-yl]-7-fluoro-2-methylindazole]",< 0.1
0.1 to 1,< 0.1,0.1 to 1,0.1 to 1,"CN1CCC(n2cc3cc(-c4cc(F)c5nn(C)cc5c4)sc3n2)CC1 [Compound 150, 7-fluoro-2-methyl-5-[2-(1-methylpiperidin-4-yl)thieno[2,3-c]pyrazol-5-yl]indazole]",0.1 to 1
< 0.1,< 0.1,< 0.1,< 0.1,"CN1CCC(c2cc3sc(-c4cc(F)c5nn(C)cc5c4)nc3s2)CC1 [Compound 151, 7-fluoro-2-methyl-5-[5-(1-methylpiperidin-4-yl)thieno[2,3-d][1,3]thiazol-2-yl]indazole]",< 0.1
0.1 to 1,< 0.1,0.1 to 1,0.1 to 1,"CN(C)C1CCN(c2cc3sc(-c4cc(F)c5nn(C)cc5c4)nc3s2)CC1 [Compound 154, 1-[2-(7-fluoro-2-methylindazol-5-yl)thieno[2,3-d][1,3]thiazol-5-yl]-N,N-dimethylpiperidin-4-amine]",0.1 to 1
0.1 to 1,< 0.1,0.1 to 1,1 to 10,Cc1cn2cc(-n3cc4cc(C5CCNCC5)sc4n3)cc(C)c2n1 [Compound 155],0.1 to 1
< 0.1,< 0.1,< 0.1,0.1 to 1,Cc1cn2cc(-n3cc4cc(C5CCNCC5)sc4n3)cc(F)c2n1 [Compound 156],0.1 to 1
0.1 to 1,< 0.1,0.1 to 1,0.1 to 1,Cc1nc2c(F)cc(-n3cc4cc(C5CCNCC5)sc4n3)cc2o1 [Compound 157],0.1 to 1
0.1 to 1,0.1 to 1,0.1 to 1,0.1 to 1,Cc1cn2cc(-n3cc4cc(C5CCNCC5)sc4n3)ncc2n1 [Compound 158],0.1 to 1
1 to 10,0.1 to 1,1 to 10,> 10,"Cn1cc2cc(-c3cc4cn([C@@H]5CCNC5)nc4s3)cc(F)c2n1 [Compound 160, (R)-5-(7-fluoro-2-methyl-2H-indazol-5-yl)-2-(pyrrolidin-3-yl)-2H-thieno[2,3-c]pyrazole hydrochloride]",1 to 10
> 10,> 10,> 10,> 10,"Cn1cc2cc(-c3cc4cn(C5CCOCC5)nc4s3)cc(F)c2n1 [Compound 161, 7-fluoro-2-methyl-5-[2-(oxan-4-yl)thieno[2,3-c]pyrazol-5-yl] indazole]",> 10
< 0.1,< 0.1,< 0.1,0.1 to 1,"Cc1cn2nc(-c3cc4cn(C5CCNCC5)nc4s3)cc(C)c2n1 [Compound 162, 4-(5-{2,8-dimethylimidazo[1,2-b]pyridazin-6-yl}thieno[2,3-c]pyrazol-2-yl)piperidine]",< 0.1
1 to 10,1 to 10,1 to 10,1 to 10,"Cc1cn2nc(-n3cc4cc(C5CCNCC5)sc4n3)nc2c(C)n1 [Compound 163, 4-(2-{6,8-dimethyl-[1,2,4]triazolo [1,5-a]pyrazin-2-yl}thieno[2,3-c]pyrazol-5-yl)piperidine]",1 to 10
1 to 10,1 to 10,1 to 10,1 to 10,Cc1cn2nc(-n3cc4cc(C5CCNCC5)sc4n3)cc2c(C)n1 [Compound 164],1 to 10
< 0.1,< 0.1,< 0.1,0.1 to 1,Cc1cn2cc(-n3cc4cc(C5CCNCC5)sc4n3)cc(Cl)c2n1 [Compound 165],< 0.1
0.1 to 1,0.1 to 1,0.1 to 1,1 to 10,"Cc1cn2cc(-n3cc4sc(C5CCNCC5)cc4n3)cc(F)c2n1 [Compound 166, 4-(2-{8-fluoro-2-methylimidazo[1,2-a]pyridin-6-yl}thieno[3,2-c]pyrazol-5-yl)piperidine]",0.1 to 1
0.1 to 1,0.1 to 1,0.1 to 1,1 to 10,Cc1nc2c(F)cc(-n3cc4sc(C5CCNCC5)cc4n3)cc2o1 [Compound 167],0.1 to 1
1 to 10,0.1 to 1,1 to 10,> 10,Cc1nc2c(F)cc(-n3cc4sc(C5CCNCC5)cc4n3)cc2s1 [Compound 168],1 to 10
1 to 10,1 to 10,1 to 10,1 to 10,Cc1cn2cc(-n3cc4sc(C5CCNCC5)cc4n3)ncc2n1 [Compound 169],1 to 10
1 to 10,1 to 10,1 to 10,1 to 10,Cc1cn2nc(-n3cc4sc(C5CCNCC5)cc4n3)nc2c(C)n1 [Compound 170],1 to 10
0.1 to 1,0.1 to 1,0.1 to 1,1 to 10,Cc1cn2nc(-n3cc4sc(C5CCNCC5)cc4n3)cc2c(C)n1 [Compound 171],0.1 to 1
0.1 to 1,0.1 to 1,0.1 to 1,1 to 10,Cc1cn2cc(-n3cc4sc(C5CCNCC5)cc4n3)cc(Cl)c2n1 [Compound 172],0.1 to 1
1 to 10,1 to 10,1 to 10,> 10,Cc1cn2cc(-n3cc4sc(C5CCNCC5)cc4n3)cc(C)c2n1 [Compound 173],1 to 10
